Assay results published in the NIST ThermoML archive (doi:10.1016/j.fluid.2018.07.012).

Conditions: Fluid (supercritical or subcritical phases), Dynamic light scattering

O=C=O [carbon dioxide]
Conditions | thermal diffusivity [m2/s]
293.55 K, 10990 kPa | 4.54e-08
295.33 K, 8060 kPa | 3.64e-08
295.4 K, 10050 kPa | 4.04e-08
297.27 K, 7520 kPa | 2.9e-08
297.45 K, 7000 kPa | 2.67e-08
302.29 K, 11020 kPa | 3.74e-08
302.43 K, 8030 kPa | 2.25e-08
302.5 K, 8980 kPa | 2.81e-08
303.34 K, 10000 kPa | 3.28e-08
305.32 K, 7050 kPa | 3.23e-08
305.77 K, 7510 kPa | 1.22e-08
307 K, 8060 kPa | 8.8e-09
307.3 K, 9050 kPa | 2.14e-08
307.42 K, 10540 kPa | 2.76e-08
312.35 K, 8020 kPa | 2.68e-08
312.44 K, 9010 kPa | 9.3e-09
313.93 K, 10020 kPa | 1.71e-08
314.2 K, 11020 kPa | 2.66e-08
316.1 K, 7000 kPa | 6.47e-08
316.65 K, 7490 kPa | 5.72e-08
317.11 K, 9010 kPa | 1.99e-08
317.19 K, 10190 kPa | 1.4e-08
317.56 K, 8000 kPa | 4.32e-08
322.67 K, 10290 kPa | 2.13e-08
323.48 K, 11000 kPa | 1.97e-08
324.73 K, 9080 kPa | 4.26e-08
324.99 K, 8160 kPa | 6.12e-08
326.51 K, 7010 kPa | 8.98e-08
326.93 K, 7480 kPa | 7.92e-08
328.26 K, 11000 kPa | 2.63e-08
333.11 K, 11010 kPa | 3.22e-08
333.51 K, 9020 kPa | 6e-08
333.97 K, 8140 kPa | 8.06e-08
334.01 K, 10320 kPa | 4.36e-08
336.92 K, 7000 kPa | 1.08e-07
337.46 K, 7510 kPa | 1.02e-07
343.12 K, 8000 kPa | 9.67e-08
343.7 K, 9050 kPa | 7.77e-08
343.72 K, 10060 kPa | 6.38e-08
343.95 K, 10970 kPa | 5.2e-08
345.99 K, 11010 kPa | 5.38e-08
346.99 K, 7020 kPa | 1.31e-07
347.28 K, 7500 kPa | 1.17e-07
353.14 K, 10270 kPa | 7.34e-08
353.95 K, 9020 kPa | 9.9e-08
354.57 K, 8000 kPa | 1.15e-07
356.06 K, 11030 kPa | 7.11e-08
357.15 K, 7030 kPa | 1.46e-07
357.37 K, 7500 kPa | 1.37e-07
363.07 K, 10000 kPa | 8.99e-08
363.43 K, 9020 kPa | 1.07e-07
364.02 K, 8020 kPa | 1.31e-07
365.89 K, 11050 kPa | 8.37e-08
367.01 K, 7010 kPa | 1.62e-07
367.19 K, 7600 kPa | 1.54e-07
373.34 K, 10090 kPa | 1.04e-07
373.59 K, 9010 kPa | 1.24e-07
374.62 K, 8010 kPa | 1.49e-07
375.92 K, 11040 kPa | 9.69e-08
377.05 K, 7040 kPa | 1.82e-07
377.25 K, 7480 kPa | 1.75e-07
382.51 K, 10040 kPa | 1.23e-07
383.53 K, 8040 kPa | 1.66e-07
383.71 K, 9020 kPa | 1.41e-07
385.64 K, 10990 kPa | 1.15e-07
386.8 K, 7480 kPa | 1.87e-07
386.82 K, 7010 kPa | 2.09e-07
392.06 K, 10550 kPa | 1.32e-07
393.82 K, 9040 kPa | 1.57e-07
394.36 K, 7960 kPa | 1.89e-07
395.37 K, 11030 kPa | 1.23e-07
396.68 K, 7010 kPa | 2.2e-07
396.85 K, 7490 kPa | 2.04e-07
402.64 K, 10200 kPa | 1.45e-07
403.05 K, 9020 kPa | 1.66e-07
403.62 K, 8070 kPa | 1.98e-07
405.15 K, 11090 kPa | 1.3e-07
406.44 K, 7020 kPa | 2.38e-07
406.5 K, 7500 kPa | 2.2e-07
